The values that follow come from PubChem BioAssay (NCI).

Test in all cases: NCI anticancer screen, dose series, 48 h
Experiment [1] concerns SK-MEL-28 melanoma.
Experiment [2] deals with NCI-H226 lung.
Experiment [3] relates to HS 578T breast.
Experiment [4] deals with ACHN renal.
In experiment [5] the test system is IGROV1 ovarian.
Experiment [6] deals with SR leukemia.
Experiment [7] deals with UO-31 renal.
For experiment [8], the system named is OVCAR-3 ovarian.
Experiment [9] concerns T-47D breast.
Experiment [10] deals with HCT-15 colon.

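Dose response: 5 concentrations. Exposure: 48 h. Format: 96-well plates. Endpoint: linear interpolation; highest concentration if not reached. The concentration for 50% growth inhibition is given as GI50. The concentration for full growth arrest is given as TGI.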 Bounds are passed on as bounds.

On to `COc1ccc(N=Nc2c3c(c(O)c4ccccc24)CCC(C)(C)O3)cc1`, for which the TGI is 43.1 µM in [1]; greater than 100 µM in experiment [2]; 66.7 µM in experiment [3]; 32.4 µM in experiment [4]; 35.5 µM in experiment [5]; 39.1 µM in experiment [6]. Further, the TGI in experiment [7] was 35.2 µM; in experiment [8] it was 33.2 µM; in experiment [9], 25.2 µM; in experiment [10] it was 28.9 µM.
For the molecule `N#CC(=N)c1ncn(-c2ccccc2N)c1N`, the TGI in experiment [1], in [2], in experiment [3], in experiment [4], in [5] and in experiment [6] was greater than 100 µM in each case. Moreover, the TGI in [7], in experiment [8], in experiment [9] and in experiment [10] was greater than 100 µM in each case.
`COc1cc(OCc2ccc3nc(OC)c(OC)nc3c2)cc(OC)c1OC`: the TGI in experiment [1], in experiment [2], in [3], in experiment [4], in experiment [5] and in [6] was greater than 10 µM each time. In addition, the TGI in experiment [7], in experiment [8], in [9] and in [10] was greater than 10 µM in each case.
Consider `O=C1CC(Sc2nc3ccc(I)cc3c(=O)n2Cc2ccccc2)C(=O)NN1` (stereo not given), for which the TGI in experiment [1] is 31.7 µM; in experiment [2], 25.2 µM; in experiment [3], 42.4 µM; in experiment [4] it was 30.2 µM; in experiment [5], 25.2 µM; in experiment [6], 24 µM. For the same molecule, the TGI in [7] amounted to 1.97 µM; in experiment [8] it was 31.2 µM; in [9], 34.3 µM; in experiment [10], 28.8 µM.
With `O=C1CCCc2cc3c(cc21)CC1(C3)Cc2ccc3c(c2C1)C(=O)CCC3` (stereo not given), the TGI is 80.6 µM in [1]; 90.1 µM in experiment [2]; greater than 100 µM in [3]; 55.4 µM in experiment [4]; greater than 100 µM in experiment [5]; 40.3 µM in experiment [6]. In addition, the TGI in experiment [7] is greater than 100 µM; in experiment [8], 69.9 µM; in experiment [9], greater than 100 µM; in experiment [10], greater than 100 µM.
As to `O=C(Nc1ccc(-n2cc(-c3ccncc3)c(-c3ccc(O)c(Cl)c3)n2)cc1)Nc1cccc(Cl)c1Cl`, the GI50 in [1] was 5.8 µM; in experiment [2] it was greater than 32.5 µM; in [3], 2.84 µM; in experiment [4] it was 7.82 µM; in experiment [5] it was 14.5 µM; in experiment [6], 30.6 µM. In addition, the GI50 was 6.67 µM in experiment [7], 6.67 µM in experiment [8], 8.62 µM in [9] and 5.33 µM in experiment [10]. The TGI in experiment [1] is 18 µM; in experiment [2], greater than 32.5 µM; in experiment [3] it was 26.5 µM; in experiment [4] it was greater than 32.5 µM; in experiment [5] it was greater than 32.5 µM; in [6], greater than 32.5 µM. Further, the TGI in experiment [7], in experiment [8], in [9] and in experiment [10] was greater than 32.5 µM in each case.
With `COc1c(O)c(O)cc2c1-c1ccc(OC)c(=O)cc1C(NC(C)=O)CC2` (stereo not given), the TGI is greater than 100 µM in experiment [1]; 70.2 µM in experiment [2]; greater than 24.9 µM in experiment [3]; greater than 96.5 µM in experiment [4]; greater than 100 µM in [5]; greater than 100 µM in [6]. The TGI in experiment [7] was greater than 100 µM; in experiment [8], 5.77 µM; in [9], greater than 100 µM; in experiment [10], greater than 100 µM.
In the case of `Nc1nc(Nc2ccc(Cl)cc2)sc1C(=O)c1cccs1`, the TGI in experiment [1] is greater than 100 µM; in experiment [2], 75.3 µM; in [3], 42.2 µM; in experiment [4], greater than 100 µM; in [5], greater than 100 µM; in experiment [6], 14.9 µM. The TGI in [7] is 95.9 µM; in experiment [8] it was 72.1 µM; in experiment [9], greater than 100 µM; in experiment [10], greater than 100 µM.
Consider `CC(O)CC(O)(C(F)(F)F)C(F)(F)F` (stereo not given), for which the TGI in experiment [1], in experiment [2], in experiment [3], in experiment [4], in experiment [5] and in experiment [6] was greater than 10 µM in each case. For the same molecule, the TGI in [7], in experiment [8], in experiment [9] and in experiment [10] was greater than 10 µM in each case.
On to `COC(=O)c1cc(C)ccc1CC(Cc1ccc(C)cc1)C(=O)OC` (stereo not given), for which the TGI in [1], in experiment [2], in experiment [3], in experiment [4], in [5] and in experiment [6] was greater than 100 µM each time. For the same molecule, the TGI in experiment [7] was greater than 100 µM; in experiment [8] it was greater than 100 µM; in experiment [9], greater than 100 µM; in experiment [10], greater than 77.9 µM.
Regarding `O=C(CNCc1ccccc1)Oc1c(Cl)c(Cl)c(Cl)c(Cl)c1Cl`, the TGI in experiment [1] was greater than 100 µM; in experiment [2], 83.1 µM; in experiment [3] it was 50.6 µM; in experiment [4], 51.1 µM; in [5], greater than 100 µM; in experiment [6], 47.9 µM. For the same molecule, the TGI was 52.1 µM in experiment [7], 62.9 µM in [8], 67.9 µM in [9] and 61 µM in experiment [10].
For `Cc1cc2nc(-c3cc(C(C)(C)C)c(O)c(C(C)(C)C)c3)[nH]c2cc1C`, the TGI in experiment [1] was greater than 100 µM; in experiment [2], greater than 100 µM; in experiment [3], greater than 100 µM; in experiment [4], greater than 24.6 µM; in experiment [5] it was greater than 100 µM; in [6], greater than 31.7 µM. Further, the TGI in experiment [7] was greater than 27.4 µM; in experiment [8] it was greater than 100 µM; in experiment [9], greater than 100 µM; in [10], greater than 100 µM.
Turning to `Cc1cc2c(nn1)-c1ccccc1C2=O`, the TGI in experiment [1], in experiment [2], in experiment [3], in experiment [4], in [5] and in experiment [6] was greater than 10 µM throughout. Also, the TGI in experiment [7], in experiment [8], in [9] and in experiment [10] was greater than 10 µM in each case.
Turning to `CC(C)(C)OC(=O)C1C(=O)NC(=O)CC1C(COCc1ccccc1)OCc1ccccc1` (stereo not given), the TGI in experiment [1] is 32.1 µM; in experiment [2], 39.4 µM; in experiment [3] it was 49.5 µM; in experiment [4], 50.7 µM; in [5] it was 52.5 µM; in [6] it was 64.1 µM. For the same molecule, the TGI is 55.8 µM in experiment [7], 46.3 µM in experiment [8], 38.7 µM in [9] and 54.5 µM in [10].
For `COC(=O)C1=C(C)NC(C)=C([N+](=O)[O-])C1c1cccc(N=O)c1` (stereo not given), the TGI in [1] was 32 µM; in experiment [2], 63.4 µM; in experiment [3], 39.1 µM; in experiment [4], 24.8 µM; in experiment [5], 29.5 µM; in experiment [6], greater than 100 µM. The TGI in experiment [7] amounted to 24.8 µM; in [8] it was 28.6 µM; in experiment [9], 37.3 µM; in experiment [10], 29.1 µM.
As for `COc1ccc(-c2csc(NC(=O)CSc3nc(C)c(-c4ccccc4)n3Nc3ccccc3)n2)cc1`, the GI50 was greater than 100 µM in [1]; greater than 100 µM in [2]; 6.69 µM in [3]; greater than 100 µM in experiment [4]; 4.25 µM in experiment [5]; 5.47 µM in experiment [6]. The GI50 in experiment [7] is 1.89 µM; in experiment [8] it was 9.61 µM; in experiment [9], 2.82 µM; in experiment [10], 6.9 µM. In addition, the TGI in experiment [1], in [2], in [3], in experiment [4], in experiment [5] and in experiment [6] was greater than 100 µM in each case. Also, the TGI is greater than 100 µM in [7], greater than 100 µM in experiment [8], 7.49 µM in [9] and greater than 100 µM in [10].
Take `COC(=O)C1(Cc2ccc3c(c2)CCC3)Cc2ccccc2C1=O` (stereo not given): the TGI in experiment [1] is 40.3 µM; in experiment [2] it was 50.5 µM; in experiment [3], 87.6 µM; in [4], greater than 100 µM; in [5] it was greater than 100 µM; in [6], greater than 100 µM. Also, the TGI in experiment [7] is 84.4 µM; in [8], greater than 100 µM; in [9] it was greater than 100 µM; in experiment [10], greater than 100 µM.
Take `CCN(CC)CCNc1ccc2ncn3c4cc(OC)c(OC)c(=O)c4c(O)c1c23`: the TGI in [1] worked out at 27.5 µM; in experiment [2] it was 45.6 µM; in experiment [3], 29.1 µM; in [4], 20.5 µM; in experiment [5], 35.6 µM; in [6] it was 16.2 µM. For the same molecule, the TGI in experiment [7] was determined as 25.7 µM; in experiment [8], 31.7 µM; in experiment [9], 42.4 µM; in experiment [10] it was 24.7 µM.
In the case of `NS(=O)(=O)c1ccc(NC(NC(=O)C(C(F)(F)F)C(F)(F)F)(C(F)(F)F)C(F)(F)F)cc1`, the TGI in [1], in experiment [2], in experiment [3], in experiment [4], in experiment [5] and in experiment [6] was greater than 100 µM in each case. Also, the TGI in [7], in experiment [8], in experiment [9] and in [10] was greater than 100 µM throughout.
With `CC12CC1C(c1cccc([N+](=O)[O-])c1)(c1cccc([N+](=O)[O-])c1)N=N2` (stereo not given), the TGI in experiment [1] was greater than 100 µM; in experiment [2] it was greater than 100 µM; in [3] it was 78 µM; in [4] it was 29.4 µM; in experiment [5], 60.5 µM; in experiment [6], 55.8 µM. In addition, the TGI was 23.8 µM in [7], greater than 100 µM in experiment [8], greater than 100 µM in experiment [9] and 44 µM in [10].
With `Cc1cc(/N=C/c2ccc(C#N)cc2)n(-c2ccccc2)n1`, the TGI in experiment [1], in experiment [2], in [3], in experiment [4], in [5] and in experiment [6] was greater than 100 µM in each case. Further, the TGI in experiment [7], in experiment [8], in experiment [9] and in experiment [10] was greater than 100 µM each time.
On to `N#CCCN(CCC#N)c1ccc(/C=C2\SC(=S)NC2=O)cc1Br`, for which the TGI in experiment [1] was greater than 100 µM; in experiment [2], greater than 100 µM; in experiment [3], 27.1 µM; in experiment [4] it was greater than 100 µM; in experiment [5], greater than 100 µM; in [6], greater than 100 µM. Besides, the TGI in experiment [7], in [8], in experiment [9] and in experiment [10] was greater than 100 µM each time.
For `COC(=O)[C@H](Cc1ccccc1)NC(=O)c1ccc(CNC(=O)/C=C/c2cccc(Oc3ccccc3)c2)cc1`, the TGI in [1] is 23.9 µM; in [2], greater than 100 µM; in experiment [3] it was 46.3 µM; in [4] it was 40.2 µM; in experiment [5], 42.6 µM; in experiment [6] it was greater than 100 µM. Besides, the TGI in experiment [7] was greater than 100 µM; in experiment [8], 40.4 µM; in experiment [9] it was greater than 100 µM; in experiment [10], greater than 100 µM.
Regarding `CCOC(CN(C)C(=S)Nc1cccc2ccccc12)OCC`, the TGI in [1], in experiment [2], in [3], in [4], in [5] and in experiment [6] was greater than 10 µM each time. For the same molecule, the TGI in [7], in [8], in [9] and in experiment [10] was greater than 10 µM in each case.
In the case of `O=C(O)c1ccc2c(c1)CC1(C2)Cc2cc3c(cc2C1=O)CCC3` (stereo not given), the TGI in experiment [1], in experiment [2], in experiment [3], in [4], in [5] and in experiment [6] was greater than 100 µM throughout. Also, the TGI in experiment [7], in experiment [8], in experiment [9] and in [10] was greater than 100 µM each time.
